Literature values in patent US20160158274A1, “COMPOSITION FOR MUCOUS DISPERSION OR HYDRATION, CONTAINING POLY-r-[sequence] ACID” (BIOLEADERS CORPORATION, priority 2013, published 2016).

System: mucin
Details: mucin in cystic fibrosis

SMILES: O=C(O)CN(CCN(CC(=O)O)CC(=O)O)CC(=O)O [EDTA]
- dispersion of aggregated mucin: assist in dispersion of mucin
